In patent publication US20080014218A1, “USE OF TIGHT JUNCTION AGONISTS TO […] DELIVERY OF THERAPEUTIC AGENTS” (ALBA THERAPEUTICS CORP., priority 2006, published 2008):
Where no end group is shown, it is not given here.

Details: rats, lung instillation, 10 μg salmon calcitonin + 1 mg FCIGRL vs 10 μg salmon calcitonin alone
Experimental: An aqueous saline solution containing 10 μg of salmon calcitonin was instilled into the lungs of rats and serum calcitonin levels were measured by ELISA. An aqueous saline solution containing 10 μg of salmon calcitonin and 1 mg of the tight junction agonist peptide FCIGRL was instilled into the lungs of rats and serum calcitonin levels were measured by ELISA.

Substance: FCIGRL [FCIGRL]
- increase in area under the curve (AUC) of serum calcitonin: approximately 10.6 fold
- increase in observed peak serum calcitonin levels: approximately three-fold
